# Measurements reported in US20090068243A1, “Novel formulations for delivery of antiviral peptide therapeutics” (priority 2007, published 2009).
# Test system: HIV-Res
# Format: cell-based, HIV-1
# Settings: resistant viral isolate "Res"
# Description: Assessment of biological properties included measurement of antiviral activity against HIV-1 strains. In determining antiviral activity (e.g., one measure being the ability to inhibit transmission of HIV to a target cell) of the HIV fusion inhibitor peptides, an in vitro assay which has been shown, by data generated using peptides derived from the HR regions of HIV gp41, to be predictive of antiviral activity observed in vivo was used. […] These assays score for reduction of infectious virus titer employing the indicator cell lines MAGI or the CCR5 expressing derivative cMAGI. Both cell lines exploit the ability of HIV-1 tat to transactivate the expression of a β-galactosidase reporter gene driven by the HIV-LTR. The β-gal reporter has been modified to localize in the nucleus and can be detected with the X-gal substrate as intense nuclear staining within a few days of infection. […] The number of infected cells for each control and peptide dilution was determined with the CCD-imager, and then the IC50 was calculated (expressed in μg/ml).
# Viruses resistant to the antiviral activity of a peptide consisting of a base sequence can be produced using standard laboratory methods. […] The cultures are maintained and monitored until syncytia are present. […] The second round of culture is maintained and monitored for presence of virus resistant to the antiviral activity of the peptide. […]
substance,measurement,value
"Ac-TTWEAWDRAIAEYAARIEALLRALQEQQEKNEAALREL-NH2 [SEQ ID NO:9, TTWEAWDRAIAEYAARIEALLRALQEQQEKNEAALREL]",Antiviral Activity (μg/ml) HIV-Res IC50,<0.10 µg/mL
